We go through 13 compounds from patent US20220259212A1, “INHIBITORS OF INDOLEAMINE 2,3-DIOXYGENASE AND/OR TRYPTOPHAN 2,3-DIOXYGENASE” (Idorsia Pharmaceuticals Ltd, priority 2019, published 2022).

One test has as its target T1, IDO1 in SKOV3 cells (Homo sapiens, UniProt P14902).
T1 construct: SKOV3 cells (NCI, No. 0503405) which upregulate IDO1 after stimulation with IFNγ; host or cells: SKOV3 cells stimulated with IFNγ
Put plainly: Cell-based IDO inhibitory activity in IFNγ-stimulated SKOV3 cells (NFK + kynurenine by LCMS). Particulars: IFNγ 50 ng/ml, 200 uM L-tryptophan, 24 hours. From the text: 3) Testing Compounds for IDO/TDO Inhibitory Activity and Toxicity in Cell-Based Assays
SW48 cells (ATCC, CCL-231) are used to measure compounds for TDO inhibitory activity and are routinely maintained in DMEM high glucose/GlutaMAX™/pyruvate 90% (v/v), FCS 10% (v/v), Penicilin/streptomycin 1% (v/v). SKOV3 cells (NCI, No. 0503405) which upregulate IDO1 after stimulation with IFNγ are used to measure compounds for IDO inhibitory activity. SKOV3 cells are routinely maintained in RPMI 90% (v/v), FCS 10% (v/v), Penicilin/streptomycin 1% (v/v). SW48 or SKOV3 cells are seeded in 384 well plates at a density of 8000 cells in 45 ul per well or 4000 cells in 45 ul per well, respectively. Plates are incubated at 37° C./5% CO2 for 24 hours. On the next day, 10 ul compound in serial dilutions (tested concentration range 10 uM-40 nM) and 200 uM L-tryptophan are added (SKV03 receive in addition IFNγ at a final concentration of 50 ng/ml). After 24 hours of incubation at 37° C./5% CO2, 3 ul of the supernatant per well is transferred to 25 ul H2O per well in a 384 deep well plate and 25 ul of the supernatant per well is transferred to waste. The SKOV3 and SW48 cell plates with 25 ul supernatant per well remaining are used to measure viability (see below). The 384 deep well plate containing 3 ul supernatant and 25 ul H2O per well are further processed for LCMS: After the addition of 100 ul L-tryptophan-(indole-d5) (Sigma 615862) at 200 nM in methanol, the 384 deep well plates are centrifuged for 10 minutes at 3220×g at 4° C., 75 ul H2O is added per well and plates centrifuged again for 10 minutes at 3220×g at 4° C. N-formylkynurenine and kynurenine are quantified by LCMS, normalized to the internal standard L-tryptophan-(indole-d5) and the sum is calculated. Samples with 0.2% DMSO (0% effect) and a TDO/IDO inhibitor (100% effect) are used as control samples to set the parameters for the non-linear regression necessary for the determination of the IC50 for each compound. For each compound concentration the percentage of activity compared to 0% and 100% effect is calculated as average±STDEV (each concentration measured in duplicate). IC50 values and curves are generated with XLfit software (IDBS) using Dose-Response One Site model 203. The calculated IC50 values may fluctuate depending on the daily cellular assay performance. Fluctuations of this kind are known to those skilled in the art. When compounds are measured multiple times, mean values are given.

For test [1], the target named is T2, Recombinant full-length human IDO1 (Homo sapiens, UniProt P14902).
T2 construct: Recombinant full-length human IDO1 with a N-terminal hexahistidine tag; hexahistidine (N); made in house; host or cells: E. coli
Description: IDO1 enzymatic assay (NFK quantified by LCMS). The class given is biochemical. The note with it: 2 nM enzyme, 5 μM L-tryptophan, 30 min pre-incubation, pH6.5; mean if measured multiple times; read-out: hIDO activity (IC50 in nM). Here is the method:
1) Testing Compounds for IDO Inhibitory Activity in an IDO1 Enzymatic Assay:
Recombinant full-length human IDO1 with a N-terminal hexahistidine tag expressed in E. coli and purified to homogeneity is incubated at a final concentration of 2 nM in assay buffer consisting of 37.5 mM phosphate buffer at pH6.5 supplemented with 10 mM ascorbic acid, 0.45 μM methylene blue, 50 U/ml catalase, 0.01% BSA, and 0.01% Tween 20 (protocol modified from Seegers et al, JBS 2014). Example compounds are serially diluted in DMSO, further diluted in phosphate buffer, and added to the enzyme at final concentrations ranging from 10 μM to 0.5 nM. The final DMSO concentration is 0.6%. Following a pre-incubation of 30 minutes at RT, the reaction is started by the addition of L-tryptophan at a final concentration of 5 μM in assay buffer. After 30 minutes of incubation at RT, 3 μL of the 20 μl reaction mixture are transferred to a 384 deep well plate containing 25 μL of deionized water. 100 μl of 200 nM L-Tryptophan-(indole-d5) in cold 100% methanol are added followed by a 10 minutes centrifugation at 3220×g at 4° C. An additional 75 μL of deionized water are then added followed by a 10 minutes centrifugation at 3220×g at 4° C. The product of the reaction N′-Formylkynurenine (NFK) is quantified by LCMS and normalized to the L-Tryptophan-(indole-d5) signal. Samples with 0.6% DMSO (0% effect) and a TDO/IDO inhibitor (100% effect) are used as control samples to set the parameters for the non-linear regression necessary for the determination of the half-maximal inhibitory concentration (IC50) for each compound. For each compound concentration the percentage of activity compared to 0% and 100% effect is calculated as average±STDEV (each concentration measured in duplicate). IC50 values and curves are generated with XLfit software (IDBS) using Dose-Response One Site model 203 (four parameter logistic curve model). The calculated IC50 values may fluctuate depending on the daily assay performance. Fluctuations of this kind are known to those skilled in the art. When compounds are measured multiple times, mean values are given.

Test [2] addresses T3, Recombinant human TDO comprising amino acids 19-407 (Homo sapiens, UniProt P48775).
T3 construct: human TDO comprising amino acids 19-407; hexahistidine (N); made in house; host or cells: E. coli
Put plainly: TDO2 enzymatic assay (NFK quantified by LCMS). It is filed as biochemical. Particulars: 15 nM enzyme, 200 μM L-tryptophan, 30 min pre-incubation, pH7; mean if measured multiple times; read-out: hTDO activity (IC50 in nM). As for the experimental part: 2) Testing Compounds for TDO Inhibitory Activity in a TDO2 Enzymatic Assay:
Recombinant human TDO comprising amino acids 19-407 with a N-terminal hexahistidine tag expressed in E. coli and purified to homogeneity is incubated at a final concentration of 15 nM in assay buffer consisting of 75 mM phosphate buffer at pH7 supplemented with 100 μM ascorbic acid, 50 U/ml Catalase, 0.01% BSA, and 0.01% Tween 20 (protocol modified from Seegers et al, JBS 2014). Example compounds are serially diluted in DMSO, further diluted in phosphate buffer, and added to the reaction mixture at final concentrations ranging from 10 μM to 0.5 nM. The final DMSO concentration is 0.6%. Following a pre-incubation of 30 minutes at RT, the reaction is started by the addition of L-tryptophan at a final concentration of 200 μM in assay buffer. After 30 minutes of incubation at RT, 3 μL of the reaction mixture are transferred to a 384 deep well plate containing 25 μL of deionized water. 100 μl of 200 nM L-Tryptophan-(indole-d5) in cold 100% methanol are added followed by a 10 minutes centrifugation at 3220×g at 4° C. An additional 75 μL of deionized water are then added followed by a 10 minutes centrifugation at 3220×g at 4° C. The product of the reaction N′-Formylkynurenine (NFK) is quantified by LCMS and normalized to the L-Tryptophan-(indole-d5) signal. Samples with 0.6% DMSO (0% effect) and a TDO/IDO inhibitor (100% effect) are used as control samples to set the parameters for the non-linear regression necessary for the determination of the half-maximal inhibitory concentration (IC50) for each compound. For each compound concentration the percentage of activity compared to 0% and 100% effect is calculated as average±STDEV (each concentration measured in duplicate). IC50 values and curves are generated with XLfit software (IDBS) using Dose-Response One Site model 203 (four parameter logistic curve model). The calculated IC50 values may fluctuate depending on the daily assay performance. Fluctuations of this kind are known to those skilled in the art. When compounds are measured multiple times, mean values are given.

T1 sequence (P14902 whole entry): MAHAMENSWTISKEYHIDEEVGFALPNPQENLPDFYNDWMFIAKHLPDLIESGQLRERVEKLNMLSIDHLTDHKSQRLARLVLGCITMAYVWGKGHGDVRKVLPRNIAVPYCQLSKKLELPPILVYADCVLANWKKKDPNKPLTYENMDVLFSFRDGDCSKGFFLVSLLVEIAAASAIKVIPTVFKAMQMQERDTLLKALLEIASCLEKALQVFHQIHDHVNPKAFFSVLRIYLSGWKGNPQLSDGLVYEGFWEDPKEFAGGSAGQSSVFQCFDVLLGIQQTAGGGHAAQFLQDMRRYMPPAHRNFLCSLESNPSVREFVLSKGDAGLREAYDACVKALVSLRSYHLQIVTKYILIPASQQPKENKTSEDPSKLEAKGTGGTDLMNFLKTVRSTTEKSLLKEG
T2 sequence (P14902 whole entry): as above
T3 sequence (P48775 19-406 limits assumed): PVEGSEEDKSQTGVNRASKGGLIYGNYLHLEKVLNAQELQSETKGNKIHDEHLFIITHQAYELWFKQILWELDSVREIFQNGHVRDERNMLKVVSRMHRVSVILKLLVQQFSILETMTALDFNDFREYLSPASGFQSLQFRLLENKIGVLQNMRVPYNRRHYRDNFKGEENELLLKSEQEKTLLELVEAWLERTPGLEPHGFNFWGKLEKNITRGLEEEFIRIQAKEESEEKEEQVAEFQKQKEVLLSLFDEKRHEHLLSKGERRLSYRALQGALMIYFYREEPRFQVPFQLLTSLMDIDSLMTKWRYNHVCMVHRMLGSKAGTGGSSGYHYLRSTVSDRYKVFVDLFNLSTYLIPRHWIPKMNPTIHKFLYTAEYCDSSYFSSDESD

In general, IC50 refers to the concentration that gives 50% inhibition. Take `CCc1ccc2cncn2c1[C@@H](O)c1cn(-c2ccc(OC)cc2)nn1` [Example 34a, (R)-(6-Ethyl-imidazo[1,5-a]pyridin-5-yl)-[1-(4-methoxy-phenyl)-1H-[1,2,3]triazol-4-yl]-methanol]: the results for the IC50 (at IDO1 in SKOV3 cells; in test [1]; in test [2]) were 7.92 nM, 1.82 nM and over 10200 nM, respectively.
In the same order, the values of `OC(c1cnn(-c2ccccc2)n1)c1c(Cl)ccc2cncn12` (racemic) [Ref3, rac-(6-Chloro-imidazo[1,5-a]pyridin-5-yl)-(2-phenyl-2H-[1,2,3]triazol-4-yl)-methanol, reference compound] are over 10000 nM, 161 nM and 8920 nM.
For the compound `CCc1ccc2cncn2c1C(O)c1cn(-c2cc(F)c(OC)cc2F)nn1` (racemic) [Example 35, rac-[1-(2,5-Difluoro-4-methoxy-phenyl)-1H-[1,2,3]triazol-4-yl]-(6-ethyl-imidazo[1,5-a]pyridin-5-yl)-methanol], the 50% inhibitory concentration (IC50) on IDO1 in SKOV3 cells is 3.05 nM; in test [1], 3.39 nM; in test [2] it was over 10200 nM.
For the compound `O[C@@H](c1cn(-c2ccc(N3CCCC3)cc2)nn1)c1c(C2CC2)ncc2cncn12` [Example 40, (R)-(6-Cyclopropyl-imidazo[1,5-a]pyrazin-5-yl)-[1-(4-pyrrolidin-1-yl-phenyl)-1H-[1,2,3]triazol-4-yl]-methanol], the figures for the IC50 (at IDO1 in SKOV3 cells; in test [1]; in test [2]) were 154 nM, 16.5 nM and over 10200 nM, respectively.
For the compound `COc1ccc(-n2nnc(C(O)c3c(Cl)ccc4cncn34)c2C)cc1` (racemic) [Example 20, rac-(6-Chloro-imidazo[1,5-a]pyridin-5-yl)-[1-(4-methoxy-phenyl)-5-methyl-1H-[1,2,3]triazol-4-yl]-methanol], the concentration for half-maximal inhibition (IC50) on IDO1 in SKOV3 cells worked out at 14.5 nM; in test [1] it was 2.78 nM; in test [2], 5260 nM.
For `Oc1ccc(-n2cc(C(O)c3c(C4CC4)ncc4cncn34)nn2)cc1Cl` (racemic) [Example 10, rac-2-Chloro-4-{4-[(6-cyclopropyl-imidazo[1,5-a]pyrazin-5-yl)-hydroxy-methyl]-[1,2,3]triazol-1-yl}-phenol] the same measures were 25.4 nM, 9.6 nM and over 10200 nM.
For `CCc1ccc2cncn2c1C(O)c1cn(-c2ccc(OC)cc2)nn1` (racemic) [Example 34, rac-(6-Ethyl-imidazo[1,5-a]pyridin-5-yl)-[1-(4-methoxy-phenyl)-1H-[1,2,3]triazol-4-yl]-methanol] the same measures were 14.5 nM, 2.97 nM and over 10200 nM.
For `COCc1ccc(-n2cc([C@H](O)c3c(C4CC4)ncc4cncn34)nn2)cc1` [Example 24, (R)-(6-Cyclopropyl-imidazo[1,5-a]pyrazin-5-yl)-[1-(4-methoxymethyl-phenyl)-1H-[1,2,3]triazol-4-yl]-methanol] the same measures were 399 nM, 8.36 nM and over 10200 nM.
Regarding `CCc1ccc2cncn2c1[C@@H](O)c1cn(-c2cc(F)c(OC)cc2F)nn1` [Example 35a, (R)-[1-(2,5-Difluoro-4-methoxy-phenyl)-1H-[1,2,3]triazol-4-yl]-(6-ethyl-imidazo[1,5-a]pyridin-5-yl)-methanol], the results for the 50% inhibitory concentration (IC50) (on IDO1 in SKOV3 cells; in test [1]; in test [2]) were 0.95 nM, 2.39 nM and over 10200 nM, respectively.
In the same order, the values of `CN(C)c1ccc(-n2cc([C@H](O)c3c(C4CC4)ncc4cncn34)nn2)cc1` [Example 44, (R)-(6-Cyclopropyl-imidazo[1,5-a]pyrazin-5-yl)-[1-(4-dimethylamino-phenyl)-1H-[1,2,3]triazol-4-yl]-methanol] are 377 nM, 14.5 nM and over 10200 nM.
For `COc1c(F)cc(-n2cc([C@H](O)c3c(C4CC4)ncc4cncn34)nn2)cc1Cl` [Example 26, (R)-[1-(3-Chloro-5-fluoro-4-methoxy-phenyl)-1H-[1,2,3]triazol-4-yl]-(6-cyclopropyl-imidazo[1,5-a]pyrazin-5-yl)-methanol] the same measures were 74.3 nM, 4.5 nM and over 10200 nM.
In the same order, the values of `OC(c1ccn(-c2ccccc2)n1)c1c(Cl)ccc2cncn12` (racemic) [Ref2, rac-(6-Chloro-imidazo[1,5-a]pyridin-5-yl)-(1-phenyl-1H-pyrazol-3-yl)-methanol, reference compound] are 2940 nM, 433 nM and over 10200 nM.
`COc1ccc(-n2cc([C@H](O)c3c(Cl)ccc4cncn34)nn2)cc1` [Example 30, (R)-(6-Chloro-imidazo[1,5-a]pyridin-5-yl)-[1-(4-methoxy-phenyl)-1H-[1,2,3]triazol-4-yl]-methanol]: the IC50 at IDO1 in SKOV3 cells amounted to 52.4 nM; in test [1], 3.68 nM; in test [2] it was 8600 nM.
